Test results reported in patent US7196074B2, “Methods of making, using and pharmaceutical formulations comprising 7α, 11β-dimethyl-17β-hydroxyestra-4, 14-dien-3-one and 17 esters thereof” (The United States of America as represented by the …, priority 2000, dated 2007).

Experiments:
Format in all cases: in vivo, Sprague-Dawley rats
ventral prostate weight [1] = assay: Oral androgenic potency, ventral prostate weight assay in orchidectomized immature rats (gavage daily for seven days); conditions: for oral activity relative to methyltestosterone (potency ratio): oral administration, summary statement, standard methyltestosterone; for oral androgenic activity, times as potent as methyltestosterone: gavage daily for 7 days in 10% ethanol/sesame oil (oily carrier), ventral prostate weight
Protocol: (§1) Immature (about 21-day-old) Sprague-Dawley rats were orchidectomized under anesthesia, and randomly assignee to groups of ten animals for each dose level of the active undergoing testing. Each active was dissolved in 10% ethanol/sesame oil and administered by gavage (oral) each day for seven days beginning on the date of the orchidectomy. The animals were sacrificed 24 hours after the last dose, and the ventral prostate and seminal vesicles were excised, cleaned of fat and connective tissue, blotted on moist filter paper and weighed to the nearest 0.1 mg. See, e.g., Hershberger, L. et al, Myotrophic Activity of 19-nortestosterone And Other Steroids Determined By Modified Levator And Muscle Method, Proc. Soc. Exptl. Biol. Med 83 175–180 (1953). Regression analysis was performed by conventional methods using a PROPHET data management system. See, e.g., Bliss, C., The Statistics of Bioassay (Academic Press, New York, 1952); Hollister, C., Nucleic Acids Res. 16 1873–75 (1988). Ventral prostate weight was used as the endpoint because it is the sensitive organ to androgenic stimulation.
as §1, with “(oral) or subcutaneous injection” for “(oral)”, “mg.” for “mg. See, e.g., Hershberger, L. et al, Myotrophic Activity of 19-nortestosterone And Other Steroids Determined By Modified Levator And Muscle Method, Proc. Soc. Exptl. Biol. Med 83 175–180 (1953).”, “system.” for “system. See, e.g., Bliss, C., The Statistics of Bioassay (Academic Press, New York, 1952); Hollister, C., Nucleic Acids Res. 16 1873–75 (1988).”
Immature (about 21-day-old) Sprague-Dawley rats were orchidectomized under anesthesia, and randomly assignee to groups of ten animals for each dose level of the active undergoing testing. Four dosage forms were prepared. The first two forms constituted a solution of each active in 10% ethanol/sesame oil. The third and fourth dosage forms constituted a suspension of each active in an aqueous carrier (as described in Example 2, supra). These dosage forms were then administered by gavage (oral) to separate animal groups each day for seven days beginning on the date of the orchidectomy. Each carrier was also administered (alone) to separate groups of animals as a control. The animals were sacrificed 24 hours after the last dose, and the ventral prostate and seminal vesicles were excised, cleaned of fat and connective tissue, blotted on moist filter paper and weighed to the nearest 0.1 mg. See, e.g., Hershberger, L. et al, Myotrophic Activity of 19-nortestosterone And Other Steroids Determined By Modified Levator And Muscle Method, Proc. Soc. Exptl. Biol. Med. 83 175–180 (1953). Regression analysis was performed by conventional methods using a PROPHET data management system. See, e.g., Bliss, C., The Statistics of Bioassay (Academic Press, New York, 1952); Hollister, C., Nucleic Acids Res. 16 1873–75 (1988). Ventral prostate weight was used as the endpoint because it is the sensitive organ to androgenic stimulation.
Immature (about 21 day old) Sprague male rats were orchidectomized under anesthesia, and randomly assignee to groups often animals for each dose level of the active undergoing testing. Animals were maintained under standard conditions of housing and had free access to food and water. Illumination was controlled for 14 hour periods of light and 10 hours of darkness. Each active was dissolved in 10% ethanol/sesame oil and administered by gavage (oral) each day for seven days beginning on the date of the orchidectomy. […]

ventral prostate weight [2] = assay: Duration of androgenic activity after subcutaneous injection, ventral prostate weight over weeks in orchidectomized immature rats; conditions: for area under the curve (AUC, trapezoidal rule) of ventral prostate weight: 12 week period, FIG. 22
Protocol: Immature (about 21-day-old) Sprague-Dawley rats were orchidectomized under anesthesia, and randomly assignee to groups of ten animals for each dose level of the active undergoing testing. Each active was administered by subcutaneous injection each day for seven days beginning on the date of the orchidectomy. The animals were sacrificed 24 hours after the last dose, and the ventral prostate and seminal vesicles were excised, cleaned of fat and connective tissue, blotted on moist filter paper and weighed to the nearest 0.1 mg. Regression analysis was performed by conventional methods using a PROPHET data management system. Ventral prostate weight was used as the endpoint because it is the sensitive organ to androgenic stimulation.
Except for testosterone enanthate, each active was formulated in two different carriers: (1) an aqueous suspension and (2) in sesame oil. Testosterone enanthate was formulated using the sesame oil carrier only, because it exists as a liquid at room temperature and could not therefore be formulated as an aqueous suspension.
(§2) The carrier used to provide the aqueous suspension was formulated as follows: 1 g benzyl alcohol, 0.5 g sodium carboxylethyl cellulose 50, 0.376 g disodium hydrogen phosphate dihydrate, 1.495 g sodium dihydrogen phosphate dihydrate, with water for injection (WFI) being added to bring volume of the carrier up to 100 ml.
Each formulation was prepared at a concentration of 0.6 mg/0.2 ml.
Immature (about 21-day-old) Sprague-Dawley rats were orchidectomized under anesthesia, and randomly assignee to groups of 40 or more. Animals received a single subcutaneous injection of 0.6 mg of each ester in 0.2 ml of an aqueous suspending carrier and/or oily carrier (10% ethanol/90% sesame oil or ethyl oleate) on the date of the orchidectomy. In cases where the ester was not solid at room temperature, 10% ethanol/sesame oil or ethyl oleate was used as the carrier. In this example, the carrier used to provide the aqueous suspension was formulated as follows: 1 g benzyl alcohol, 0.5 g sodium carboxylethyl cellulose 50, 0.376 g disodium hydrogen phosphate dihydrate, 1.495 g sodium dihydrogen phosphate dihydrate, with water for injection (WFI) being added to bring volume of the carrier up to 100 ml.
Five animals from each group were sacrificed at weekly or biweekly intervals, and the ventral prostate and seminal vesicles were excised, cleaned of fat and connective tissue, blotted on moist filter paper and weighed to the nearest 0.1 mg.
Ventral prostate weight was used as the endpoint because it is the sensitive organ to androgenic stimulation. Regression analysis was performed by conventional methods using the PROPHET data management system previously identified.
Immature (about 21-day-old) Sprague-Dawley rats were orchidectomized under anesthesia, and randomly assignee to groups of 40 or more. Animals received a single subcutaneous injection of 0.6 mg of the undecanoate in 0.2 ml of an aqueous suspending carrier and/or oily carrier (10% ethanol/90% sesame oil containing 5 mg/ml chlorobutanol as a preservative, or ethyloleate) on the date of the orchidectomy. The enanthate ester was formulated using the 10% ethanol/sesame oil or ethyloleate carrier as a first standard, with the 10% ethanol/sesame oil carrier used as a second standard.
as §2, with “In this example, the” for “The”
Immature (about 21-day-old) Sprague-Dawley rats were orchidectomized under anesthesia, and randomly assignee to groups of 40 or more. […] The enanthate ester was formulated using the 10% ethanol/sesame oil or ethyloleate carrier as a first standard, with the 10% ethanol/sesame oil carrier used as a second standard.

ventral prostate weight [3] = assay: Subcutaneous androgenic potency, ventral prostate weight assay in orchidectomized immature rats (injection daily for seven days); conditions: ventral prostate weight assay following subcutaneous administration; alcohol of G = 1.0 (assigned); value is for the free alcohol of the listed ester
Protocol: Immature (about 21-day-old) Sprague-Dawley rats were orchidectomized under anesthesia, and randomly assignee to groups of ten animals for each dose level of the active undergoing testing. Each active was dissolved in 10% ethanol/sesame oil and administered by gavage (oral) or subcutaneous injection each day for seven days beginning on the date of the orchidectomy. The animals were sacrificed 24 hours after the last dose, and the ventral prostate and seminal vesicles were excised, cleaned of fat and connective tissue, blotted on moist filter paper and weighed to the nearest 0.1 mg. Regression analysis was performed by conventional methods using a PROPHET data management system. Ventral prostate weight was used as the endpoint because it is the sensitive organ to androgenic stimulation.
as §1, with “subcutaneous injection” for “gavage (oral)”, “Bid. Med.” for “Biol. Med”
Immature (about 22-day-old) Sprague-Dawley male rats were orchidectomized under anesthesia, and randomly assignee to groups of ten animals for each dose level of the active undergoing testing. […] Illumination was controlled for 14 hour periods of light and 10 hours of darkness.
Each active was administered by subcutaneous injection of 0.6 mg of test material in aqueous suspending vehicle (ASV) and/or an oily vehicle (10% ethanol/sesame oil) on the day of surgery. Testosterone enanthate in sesame oil was used as a standard. The ventral prostate and seminal vesicles were excised, cleaned of fat and connective tissue, blotted on moist filter paper and weighed to the nearest 0.1 mg. Regression analysis was performed by conventional methods using a PROPHET data management system. Ventral prostate weight was used as the endpoint because it is the sensitive organ to androgenic stimulation.

Row | SMILES | oral activity relative to methyltestosterone (potency ratio) (ventral prostate weight [1]) | Androgenic Potency (activity of corresponding alcohol) (ventral prostate weight [3]) | other results
1 | CCCCC1CCC(C(=O)O[C@H]2CC=C3[C@H]4[C@H]([C@@H](C)C[C@@]32C)[C@H]2CCC(=O)C=C2C[C@H]4C)CC1 (stereo partly drawn) | at least about six times |  | 
2 | CCCCCCCCCCC(=O)O[C@H]1CC=C2[C@H]3[C@H]([C@@H](C)C[C@@]21C)[C@H]1CCC(=O)C=C1C[C@H]3C [Compound IV, 7α,11β-dimethyl-17β-hydroxyestra-4,14-dien-3-one 17-undecanoate] |  |  | duration of activity on parenteral administration (summary in words) (ventral prostate weight [2]; parenteral administration, relative to other actives): not long-acting; oral androgenic activity, times as potent as methyltestosterone (ventral prostate weight [1]): about two to about nine times
3 | CCCC[C@H]1CC[C@H](C(=O)O[C@H]2CC[C@H]3[C@H]4[C@H](CC[C@]23C)[C@H]2CCC(=O)C=C2C[C@H]4C)CC1 [A, 7α-Methyl-19-nortestosterone-17β-bucyclate] |  | 8.1^3 | 
4 | C[C@@H]1CC2=CC(=O)CC[C@@H]2[C@@H]2[C@@H]1C1=CC[C@H](O)[C@@]1(C)C[C@@H]2C [Compound III, 7α,11β-dimethyl-17β-hydroxyestra-4,14-dien-3-one] | ~1.96 |  | 
5 | CCCCCCCCCCC(=O)O[C@H]1CC[C@H]2[C@H]3[C@H]([C@@H](C)C[C@]12C)[C@H]1CCC(=O)C=C1C[C@H]3C | about twice |  | 
6 | CCCC[C@H]1CC[C@H](C(=O)O[C@H]2CC[C@H]3[C@H]4[C@H](CC[C@]23C)[C@H]2CCC(=O)C[C@@H]2C[C@H]4C)CC1 [B, 7α-Methyl-5α-dihydro-19-nortestosterone-17β-bucyclate] |  | 1.2 | 
7 | CCCCC1CCC(C(=O)O[C@H]2CC[C@H]3[C@@H]4CCC5=CC(=O)CC[C@]5(C)[C@H]4CC[C@]23C)CC1 (stereo partly drawn) [testosterone bucyclate, Testosterone bucyclate, reference compound] |  | 1.0 (assigned) | potency and long-term activity after subcutaneous injection versus 0.6 mg CDB-4386A in aqueous suspension (in words), FIG. 5 (ventral prostate weight [2]; 1.0 mg/0.2 ml, aqueous suspension, ventral prostate weight): significantly less
8 | CCCCC1CCC(C(=O)OC2CCCC3C4C(C)CC5=CC(=O)CCC5(C)C4CCC23C)CC1 [D, 7α-Methyl-D-homo-testosterone-17β-bucyclate] |  | 36.4–61.7^3 | 
9 | CCCC[C@H]1CC[C@H](C(=O)O[C@H]2CC=C3[C@H]4[C@H](CC[C@@]32C)[C@H]2CCC(=O)C=C2C[C@H]4C)CC1 [CDB-4327A, 7α-Methyl-14-dehydro-19-nortestosterone-17β-bucyclate, reference compound] |  |  | ventral prostate weight over time after single subcutaneous injection (in words) (ventral prostate weight [2]; 0.6 mg in 0.2 ml oily carrier, up to 20 weeks, FIG. 9): surprising stimulation of ventral prostate size over the entire 20-week observation period
10 | CCCCC1CCC(C(=O)O[C@H]2CC=C3[C@H]4[C@H]([C@@H](C)C[C@@]32C)[C@H]2CCC(=O)C=C2C[C@H]4C)CC1 (stereo partly drawn) [Compound V, 7α,11β-dimethyl-17β-hydroxyestra-4,14-dien-3-one 17β-4-n-butylcyclohexanecarboxylate] |  |  | ventral prostate weight over time after single subcutaneous injection (in words) (ventral prostate weight [2]; 0.6 mg in 0.2 ml aqueous vehicle): most dramatic increases and maintenance of ventral prostate weight; AUC of ventral prostate weight, times greater than for testosterone enanthate in oily carrier (ventral prostate weight [2]; active in aqueous vehicle versus testosterone enanthate in sesame oil/oily carrier, single subcutaneous 0.6 mg): about 3 times; area under the curve (AUC, trapezoidal rule) of ventral prostate weight (ventral prostate weight [2]; single subcutaneous 0.6 mg in aqueous vehicle): 1521 mg-weeks; oral androgenic activity, times as potent as methyltestosterone (ventral prostate weight [1]): about six to about eighteen times
11 | CCCCCCC(=O)O[C@H]1CC[C@H]2[C@@H]3CCC4=CC(=O)CC[C@]4(C)[C@H]3CC[C@]12C [testosterone enanthate, reference compound] |  |  | area under the curve (AUC, trapezoidal rule) of ventral prostate weight (ventral prostate weight [2]; single subcutaneous 0.6 mg in oily carrier): 513 mg-weeks
12 | CCCC[C@H]1CC[C@H](C(=O)O[C@H]2CC=C3[C@@H]4[C@H](C)CC5=CC(=O)CC[C@]5(C)[C@H]4CC[C@@]32C)CC1 [C, 7α-Methyl-14-dehydro-testosterone-17β-bucyclate] |  | 61.1 | 
13 | CCCCCCCCCCC(=O)O[C@H]1CC=C2[C@H]3[C@H]([C@@H](C)C[C@@]21C)[C@H]1CCC(=O)C=C1C[C@H]3C | at least about twice |  | 
